Assays:
Type in all cases: cell-based, SD rats
[1] = tested on: rat cerebral cortical neurons treated with Aβ(25-35); assay: Measurement of neuronal cell death induced by Aβ(25-35) (calcein AM uptake, cell viability); conditions: 10 μM Aβ(25-35) and Compound 11 100 nM, 8-well culture slide, 4 days; FIG. 2; vs control group
Description: Cerebral cortical neurons of SD rats (embryonic day 18) were primary cultured. The neurons were seeded in a 24-well culture dish at a density of 2.86×10^5 cells/cm^2, and after 3 days, simultaneously treated with 10 μM partial peptide including the 25 to 35-amino acid residue of Aβ (hereinafter called Aβ(25-35)) and each of Compounds 1 to 5 (100 nM). After another 4 days, 6 μM calcein AM was added, the whole was incubated for 40 minutes at 37° C., and the fluorescence intensity at 485 nm was measured so that the uptake of calcein AM into the neurons was calculated to determine the cell viability. The group without the Aβ(25-35) treatment and the administration of any medical agents was defined as a control group, and the group with the Aβ(25-35) treatment but without the administration of any medical agents was defined as a vehicle group.
Separately, the neurons were seeded in an 8-well culture slide at a density of 2.14×10^5 cells/cm^2, and after 5 days, simultaneously treated with 10 μM Aβ(25-35) and Compound 11 (100 nM). After another 4 days, 6 μM calcein AM was added, and the whole was incubated for 40 minutes at 37° C. Then the neurons were fixed, and the fluorescence image was obtained under a fluorescence microscope AX-80. The uptake of calcein AM into the neurons was quantitatively analyzed with an ATTO Densitograph (ATTO, Tokyo, Japan) to determine the cell viability. […]

[2] = tested on: rat cerebral cortical neurons treated with Aβ(1-42); assay: Measurement of dendrite atrophy induced by Aβ(1-42) (MAP2 immunostaining); conditions: 5 μM Aβ(1-42), after 3 days each of Compounds 5, 11, 21, and 22 (1 μM), another 5 days; FIG. 5; vs control group
Description: Cerebral cortical neurons of SD rats (embryonic day 18) were primary cultured. The neurons were seeded in an 8-well culture slide at a density of 2.6×10^5 cells/cm^2. After 5 days, the neurons were treated with 5 μM Aβ(1-42), and after another 3 days, treated with each of Compounds 5, 11, 21, and 22 (each 1 μM). After another 5 days, immunostaining was carried out. The used primary antibody was a rabbit polyclonal antibody against MAP2 that is as a marker protein of the dendrite (a dilution degree of 500; Chemicon, Temecula, Calif., USA). The used secondary antibody was Alexa Fluor 568 labeled goat anti-rabbit IgG (a dilution degree of 300; Molecular Probes, Carlsbad, Calif., USA). The neurons were observed under a fluorescence microscope AX-80 (Olympus, Tokyo, Japan) and the fluorescence image was obtained. The average length of the dendrites per neuron was measured with Neurocyte Ver. 1.5 (Toyobo, Osaka, Japan). The group without the Aβ(1-42) treatment and the administration of any medical agents was defined as a control group, and the group with the Aβ(1-42) treatment but without the administration of any medical agents was defined as a vehicle group.

[3] = tested on: rat cerebral cortical neurons treated with Aβ(1-42); assay: Measurement of axon atrophy induced by Aβ(1-42) (phosphorylated neurofilament H immunostaining); conditions: 5 μM Aβ(1-42), after 3 days each of Compounds 5, 11, 21, and 22 (1 μM), another 5 days; FIG. 6; vs control group
Description: Cerebral cortical neurons of SD rats (embryonic day 18) were primary cultured. The neurons were seeded in an 8-well culture slide at a density of 2.6×10^5 cells/cm^2, after 5 days, treated with 5 μM Aβ(1-42), and after another 3 days, treated with each of Compounds 5, 11, 21, and 22 (each 1 μM). After another 5 days, immunostaining was carried out. The used primary antibody was a mouse monoclonal antibody against phosphorylated neurofilament H that is a marker protein of the axon (a dilution degree of 500; Sternberger Monoclonals, MD, USA). The used secondary antibody was Alexa Fluor 488 labeled goat anti-[…] IgG (a dilution degree of 300; Molecular Probes, Carlsbad, Calif., USA). The neurons were observed under a fluorescence microscope AX-80 (Olympus, Tokyo, Japan) and the fluorescence image was obtained. The average length of the axons per neuron was measured with Neurocyte Ver. 1.5 (Toyobo, Osaka, Japan). The group without the Aβ(1-42) treatment and the administration of any medical agents was defined as a control group, and the group with the Aβ(1-42) treatment but without the administration of any medical agents was defined as a vehicle group.

| SMILES | cell viability (uptake of calcein AM, fluorescence image) [1] | dendrite outgrowth effect (average length of the dendrites per neuron) [2] | axon outgrowth effect (average length of the axons per neuron) [3] |
| --- | --- | --- | --- |
| N#CC12CCC3(OCCO3)C3=COC(Cc4ccc(O)cc41)C32 (stereo not drawn) [Compound 11, 9-hydroxy-2,3,5a,10c-tetrahydro-1H,6H-5-oxa-3-oxo-acephenanthrylene-10b-carbonitrile ethylene ketal] | cell viability remarkably higher than that of the control group | – | – |
| COc1cc2c(cc1O)C1(C#N)CCC3(OCCO3)C3=COC(C2)C31 (stereo not drawn) [Compound 22, 9-hydroxy-8-methoxy-2,3,5a,10c-tetrahydro-1H,6H-5-oxa-3-oxo-acephenanthrylene-10b-carbonitrile ethylene ketal] | – | dendrite outgrowth effect remarkably higher than that of the control group | axon outgrowth effect remarkably higher than that of the control group |

— US20110021625A1, “NEURONAL CELL DEATH INHIBITOR” (LEAD CHEMICAL CO., LTD., priority 2008, published 2011)
